Experimental data as given in publication PMC11988912, “Sensitization Potential of the Major Soybean Allergen Gly m 4 and Its Cross-Reactivity with the Birch Pollen Allergen Bet v 1” (International Journal of Molecular Sciences, 2025).

Target: T1, Gly m 4 (Glycine max, UniProt P26987)
T1 construct: gene PR-10; recombinant allergen, full length; made in E. coli
T1 sequence (P26987 1-158): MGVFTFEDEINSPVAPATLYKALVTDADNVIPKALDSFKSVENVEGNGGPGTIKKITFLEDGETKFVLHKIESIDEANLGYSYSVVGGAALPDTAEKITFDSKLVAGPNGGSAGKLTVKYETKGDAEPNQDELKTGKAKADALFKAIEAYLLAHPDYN
Assay: TNS fluorescence displacement
Format: binding
Conditions: 4 uM ligand, 4 uM TNS, 4 uM Gly m 4; 10 mM phosphate buffer pH 7.4, 25 C; residual fluorescence of the Gly m 4-TNS complex

Row | SMILES | % of the control fluorescence [%]
1 | CC(C)CCC[C@@H](C)[C@H]1CC[C@H]2[C@@H]3CC=C4C[C@@H](O)CC[C@]4(C)[C@H]3CC[C@]12C [CHOL, cholesterol] | 83
2 | C[C@H](CCC(=O)O)[C@H]1CC[C@H]2[C@@H]3[C@H](O)C[C@@H]4C[C@H](O)CC[C@]4(C)[C@H]3CC[C@]12C [CDCA, chenodeoxycholic acid] | 53
3 | C[C@H](CCC(=O)O)[C@H]1CC[C@H]2[C@@H]3[C@H](O)C[C@@H]4C[C@H](O)CC[C@]4(C)[C@H]3C[C@H](O)[C@]12C [CA, cholic acid] | 88
4 | C[C@H](CCC(=O)O)[C@H]1CC[C@H]2[C@@H]3CC[C@@H]4C[C@H](O)CC[C@]4(C)[C@H]3C[C@H](O)[C@]12C [DCA, deoxycholic acid] | 71
5 | C[C@H](CCC(=O)O)[C@H]1CC[C@H]2[C@@H]3CC[C@@H]4C[C@H](O)CC[C@]4(C)[C@H]3CC[C@]12C [LCA, lithocholic acid] | 10
